From ChEMBL document CHEMBL1201862, “PubChem BioAssay data set” (2004)
Active and inactive are the calls of the source.

Assays:
[1] = target: T1, Tyrosine-protein phosphatase non-receptor type 22 (Homo sapiens, UniProt Q9Y2R2); test: LYP phosphatase inhibition for selectivity, dose response, selectivity assay for LMPTP inhibitor project, biochemical, fluorescence, LYP catalytic domain (AID 652006); type: functional; details: read-out: IC50_Mean
T1 sequence (Q9Y2R2 whole entry): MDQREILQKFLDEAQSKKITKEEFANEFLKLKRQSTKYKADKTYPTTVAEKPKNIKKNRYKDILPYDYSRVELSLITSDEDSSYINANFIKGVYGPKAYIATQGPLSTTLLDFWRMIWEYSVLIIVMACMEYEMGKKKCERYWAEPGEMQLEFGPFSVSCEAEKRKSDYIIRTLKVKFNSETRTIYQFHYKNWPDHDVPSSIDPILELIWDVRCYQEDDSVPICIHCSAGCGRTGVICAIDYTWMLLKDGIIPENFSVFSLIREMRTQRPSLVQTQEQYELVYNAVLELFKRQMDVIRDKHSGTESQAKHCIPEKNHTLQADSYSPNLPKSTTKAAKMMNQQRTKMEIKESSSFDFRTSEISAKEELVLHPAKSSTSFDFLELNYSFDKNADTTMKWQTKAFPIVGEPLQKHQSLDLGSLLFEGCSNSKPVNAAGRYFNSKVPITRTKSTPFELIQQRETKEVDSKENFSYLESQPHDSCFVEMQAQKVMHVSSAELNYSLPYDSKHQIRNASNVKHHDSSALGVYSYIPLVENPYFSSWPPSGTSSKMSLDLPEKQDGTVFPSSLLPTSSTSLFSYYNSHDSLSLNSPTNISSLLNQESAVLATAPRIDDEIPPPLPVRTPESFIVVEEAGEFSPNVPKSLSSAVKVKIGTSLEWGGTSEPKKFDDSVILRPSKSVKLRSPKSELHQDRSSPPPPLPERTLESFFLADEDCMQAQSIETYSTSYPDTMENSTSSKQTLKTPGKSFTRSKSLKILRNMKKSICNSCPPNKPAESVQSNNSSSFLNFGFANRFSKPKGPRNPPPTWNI

[2] = target: T2, Low molecular weight phosphotyrosine protein phosphatase (Homo sapiens, UniProt P24666); type: functional; details: read-out: IC50_Mean
T2 sequence (P24666 whole entry): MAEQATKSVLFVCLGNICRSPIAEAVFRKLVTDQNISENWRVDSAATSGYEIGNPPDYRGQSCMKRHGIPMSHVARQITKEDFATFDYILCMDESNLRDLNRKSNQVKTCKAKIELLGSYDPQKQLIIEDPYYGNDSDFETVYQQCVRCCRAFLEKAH

[3] = target: T2, Low molecular weight phosphotyrosine protein phosphatase; type: functional; details: read-out: IC50_Mean; remark: listed apart in the source
[4] = target: Dual specificity tyrosine-phosphorylation-regulated kinase 1A (Rattus norvegicus, UniProt Q63470); type: biochemical, Homo sapiens
[5] = target: T3, Short transient receptor potential channel 4 (Mus musculus, UniProt Q9QUQ5); test: mouse TRPC4 channel inhibitors, dose response, cell-based, HEK293 TRPC4/mu-opioid, Fluo-4 calcium (AID 434942); type: functional;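 note: potency of inhibitors blocking the TRPC4 calcium response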
T3 sequence (Q9QUQ5 whole entry): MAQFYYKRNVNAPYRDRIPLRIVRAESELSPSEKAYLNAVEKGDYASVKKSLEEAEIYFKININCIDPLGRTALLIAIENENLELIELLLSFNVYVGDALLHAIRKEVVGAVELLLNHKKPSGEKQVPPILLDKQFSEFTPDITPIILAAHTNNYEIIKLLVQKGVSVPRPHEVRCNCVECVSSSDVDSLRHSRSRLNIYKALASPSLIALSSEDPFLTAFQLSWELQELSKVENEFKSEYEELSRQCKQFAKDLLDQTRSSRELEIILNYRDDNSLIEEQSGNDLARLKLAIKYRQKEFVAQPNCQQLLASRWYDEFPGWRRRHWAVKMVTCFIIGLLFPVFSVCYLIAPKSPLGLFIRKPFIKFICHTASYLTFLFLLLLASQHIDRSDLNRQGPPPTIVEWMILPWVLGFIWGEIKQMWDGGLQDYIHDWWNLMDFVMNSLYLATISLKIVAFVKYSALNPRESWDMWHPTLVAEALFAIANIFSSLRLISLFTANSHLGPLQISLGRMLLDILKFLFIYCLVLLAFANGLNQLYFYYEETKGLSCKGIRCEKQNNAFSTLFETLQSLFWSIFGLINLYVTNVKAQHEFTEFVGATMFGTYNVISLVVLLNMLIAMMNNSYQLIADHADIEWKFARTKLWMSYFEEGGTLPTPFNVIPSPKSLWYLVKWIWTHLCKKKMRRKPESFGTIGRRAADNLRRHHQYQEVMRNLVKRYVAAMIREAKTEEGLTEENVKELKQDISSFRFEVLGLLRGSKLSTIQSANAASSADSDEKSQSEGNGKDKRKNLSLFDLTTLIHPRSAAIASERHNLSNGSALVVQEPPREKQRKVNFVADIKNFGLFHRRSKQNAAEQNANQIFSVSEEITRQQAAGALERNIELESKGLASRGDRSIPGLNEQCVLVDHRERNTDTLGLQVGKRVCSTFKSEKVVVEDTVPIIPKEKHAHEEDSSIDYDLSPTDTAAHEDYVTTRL

[6] = target: Aryl hydrocarbon receptor (Homo sapiens, UniProt P35869); details: Potency;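 note: confirmatory quantitative high-throughput screen measuring activation of the AhR signaling pathway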
Aryl hydrocarbon receptor, sequence (P35869 whole entry): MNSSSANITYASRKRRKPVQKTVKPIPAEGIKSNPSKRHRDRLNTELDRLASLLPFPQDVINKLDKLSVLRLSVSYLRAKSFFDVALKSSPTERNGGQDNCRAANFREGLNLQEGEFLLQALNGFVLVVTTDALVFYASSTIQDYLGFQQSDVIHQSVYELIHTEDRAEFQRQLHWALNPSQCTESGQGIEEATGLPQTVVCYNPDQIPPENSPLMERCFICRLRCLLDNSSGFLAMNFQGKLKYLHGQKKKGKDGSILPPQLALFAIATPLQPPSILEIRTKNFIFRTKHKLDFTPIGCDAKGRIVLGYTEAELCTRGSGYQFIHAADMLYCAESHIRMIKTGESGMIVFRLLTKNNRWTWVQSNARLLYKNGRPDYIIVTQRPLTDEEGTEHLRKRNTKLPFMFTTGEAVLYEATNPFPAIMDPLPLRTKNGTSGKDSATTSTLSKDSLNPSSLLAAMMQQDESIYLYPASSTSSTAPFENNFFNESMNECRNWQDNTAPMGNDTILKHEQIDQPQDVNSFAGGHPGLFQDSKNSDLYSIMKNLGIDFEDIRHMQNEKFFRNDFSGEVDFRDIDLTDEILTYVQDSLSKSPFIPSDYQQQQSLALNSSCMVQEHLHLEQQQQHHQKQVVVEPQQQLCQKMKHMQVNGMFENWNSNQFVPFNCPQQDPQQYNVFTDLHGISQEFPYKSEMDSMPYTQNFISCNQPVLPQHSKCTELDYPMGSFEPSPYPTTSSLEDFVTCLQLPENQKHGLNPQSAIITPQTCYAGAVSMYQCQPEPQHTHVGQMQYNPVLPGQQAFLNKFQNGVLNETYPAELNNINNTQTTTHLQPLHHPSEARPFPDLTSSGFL

Cytochrome P450 3A4 = Cytochrome P450 3A4 (Homo sapiens, UniProt P08684); details: Potency;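 note: confirmatory qHTS run detecting inhibitors and substrates of CYP3A4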
Cytochrome P450 3A4, sequence (P08684 whole entry): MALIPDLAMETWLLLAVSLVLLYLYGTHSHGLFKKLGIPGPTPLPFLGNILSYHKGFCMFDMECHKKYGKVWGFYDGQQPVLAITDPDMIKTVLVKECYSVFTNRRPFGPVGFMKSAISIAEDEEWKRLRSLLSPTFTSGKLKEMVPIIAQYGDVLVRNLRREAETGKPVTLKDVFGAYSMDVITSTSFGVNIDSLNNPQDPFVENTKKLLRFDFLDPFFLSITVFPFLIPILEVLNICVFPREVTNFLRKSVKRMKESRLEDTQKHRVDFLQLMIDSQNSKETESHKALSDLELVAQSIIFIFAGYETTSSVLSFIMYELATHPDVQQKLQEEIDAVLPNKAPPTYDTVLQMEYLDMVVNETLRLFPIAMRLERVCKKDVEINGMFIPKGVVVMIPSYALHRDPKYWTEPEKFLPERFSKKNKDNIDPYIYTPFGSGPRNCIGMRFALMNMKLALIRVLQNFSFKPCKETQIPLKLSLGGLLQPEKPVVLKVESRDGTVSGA

[7] = target: T4, Probable nicotinate-nucleotide adenylyltransferase (Staphylococcus aureus (strain N315), UniProt P65502); type: functional, Staphylococcus aureus subsp. aureus N315; details: read-out: IC50_Mean;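 for IC50 Mean: confirmatory dose-response retesting of NadD inhibitor hits first found in an ultra-high-throughput screen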
T4 sequence (P65502 whole entry): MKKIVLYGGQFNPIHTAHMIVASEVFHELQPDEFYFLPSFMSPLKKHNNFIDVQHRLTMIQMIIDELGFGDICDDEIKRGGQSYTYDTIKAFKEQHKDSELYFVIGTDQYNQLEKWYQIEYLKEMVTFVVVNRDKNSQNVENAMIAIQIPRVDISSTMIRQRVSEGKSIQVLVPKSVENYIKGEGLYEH

[8] = target: T4, Probable nicotinate-nucleotide adenylyltransferase; type: functional, Staphylococcus aureus subsp. aureus N315
[9] = THP-1 cell cytotoxicity, cytotoxicity control, set 4 (AID 504911); type: functional; details: Mycobacterium tuberculosis
Genome polyprotein = Genome polyprotein (dengue virus type 2, UniProt P29990); test: Dengue-2 NS5 methyltransferase inhibitors, primary screen, biochemical, confirmation dose response (AID 588689); type: functional
Genome polyprotein, sequence (P29990 2492-3391 limits assumed): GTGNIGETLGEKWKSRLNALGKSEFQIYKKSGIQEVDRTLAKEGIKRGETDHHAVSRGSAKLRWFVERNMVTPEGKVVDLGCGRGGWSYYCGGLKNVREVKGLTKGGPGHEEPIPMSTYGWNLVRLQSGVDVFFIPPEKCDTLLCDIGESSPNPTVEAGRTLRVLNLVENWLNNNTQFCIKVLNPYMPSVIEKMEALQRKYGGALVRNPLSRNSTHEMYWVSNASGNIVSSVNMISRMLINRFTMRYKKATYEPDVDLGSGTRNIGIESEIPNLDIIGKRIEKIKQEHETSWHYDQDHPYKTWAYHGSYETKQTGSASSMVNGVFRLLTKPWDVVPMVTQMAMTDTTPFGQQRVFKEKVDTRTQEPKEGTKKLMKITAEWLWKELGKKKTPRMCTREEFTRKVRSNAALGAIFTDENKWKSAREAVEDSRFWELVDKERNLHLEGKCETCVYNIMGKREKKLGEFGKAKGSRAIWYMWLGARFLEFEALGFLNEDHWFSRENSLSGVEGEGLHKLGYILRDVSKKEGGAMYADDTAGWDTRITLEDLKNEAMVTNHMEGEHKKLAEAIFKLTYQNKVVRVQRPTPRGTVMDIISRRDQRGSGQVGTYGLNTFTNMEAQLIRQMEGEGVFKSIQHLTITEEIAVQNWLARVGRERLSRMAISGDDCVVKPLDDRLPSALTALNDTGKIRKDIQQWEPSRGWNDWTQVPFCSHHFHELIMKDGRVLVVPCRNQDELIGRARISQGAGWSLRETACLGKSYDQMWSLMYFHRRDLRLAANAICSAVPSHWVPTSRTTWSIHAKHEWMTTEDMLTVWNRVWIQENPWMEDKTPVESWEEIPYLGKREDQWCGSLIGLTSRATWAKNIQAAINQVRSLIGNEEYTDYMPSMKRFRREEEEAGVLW

[10] = target: Mitochondrial peptide methionine sulfoxide reductase (Bos taurus, UniProt P54149); test: Absorbance-based biochemical high throughput dose response assay for activators of Methionine sulfoxide reductase A (MsrA).; type: functional
Mitochondrial peptide methionine sulfoxide reductase, sequence (P54149 whole entry): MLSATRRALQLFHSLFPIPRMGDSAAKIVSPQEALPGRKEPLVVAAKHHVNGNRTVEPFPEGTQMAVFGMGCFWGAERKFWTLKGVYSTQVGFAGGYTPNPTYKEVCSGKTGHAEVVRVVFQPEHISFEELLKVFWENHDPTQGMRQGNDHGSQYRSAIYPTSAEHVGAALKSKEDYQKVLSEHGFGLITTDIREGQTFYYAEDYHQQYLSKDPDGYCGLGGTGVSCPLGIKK

[11] = target: T5, Polyadenylate-binding protein 1 (Homo sapiens, UniProt P11940); test: PABP1 MLLE–PAM2 binding inhibitor potency, dose response, biochemical, fluorescence polarization, FITC-PAM2 peptide (AID 602259); type: functional; details: read-out: IC50_Mean
T5 sequence (P11940 whole entry): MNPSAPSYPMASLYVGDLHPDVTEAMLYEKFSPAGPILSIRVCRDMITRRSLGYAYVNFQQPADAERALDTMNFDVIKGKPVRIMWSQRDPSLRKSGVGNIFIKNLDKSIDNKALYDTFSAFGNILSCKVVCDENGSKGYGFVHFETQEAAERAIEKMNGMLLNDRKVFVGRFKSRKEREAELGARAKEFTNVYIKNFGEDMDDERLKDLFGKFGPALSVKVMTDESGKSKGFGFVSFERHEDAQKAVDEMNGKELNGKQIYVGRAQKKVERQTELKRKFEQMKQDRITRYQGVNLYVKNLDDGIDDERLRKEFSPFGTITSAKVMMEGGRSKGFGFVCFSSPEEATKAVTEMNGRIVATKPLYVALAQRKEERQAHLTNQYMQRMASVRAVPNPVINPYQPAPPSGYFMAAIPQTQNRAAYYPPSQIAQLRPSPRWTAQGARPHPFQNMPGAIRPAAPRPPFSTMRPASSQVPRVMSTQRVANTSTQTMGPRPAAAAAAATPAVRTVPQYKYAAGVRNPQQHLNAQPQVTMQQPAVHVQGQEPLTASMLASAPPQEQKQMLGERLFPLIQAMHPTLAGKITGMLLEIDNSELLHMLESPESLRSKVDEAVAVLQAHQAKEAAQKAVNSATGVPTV

[12] = target: T5, Polyadenylate-binding protein 1; test: PABP1 MLLE–PAM2 interaction inhibitors, dose response, miRNA deadenylation inhibitor project, biochemical, fluorescence polarization, Cy5-PAM2 peptide, secondary (AID 602260); type: functional; details: read-out: IC50_Mean
Melanocortin receptor 4 = Melanocortin receptor 4 (Homo sapiens, UniProt P32245); test: MC4R antagonist potency on cAMP, dose response, cell-based, TR-FRET, biased antagonists (AID 602298); type: functional;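 note: antagonist potency against agonist-stimulated cAMP production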
Melanocortin receptor 4, sequence (P32245 whole entry): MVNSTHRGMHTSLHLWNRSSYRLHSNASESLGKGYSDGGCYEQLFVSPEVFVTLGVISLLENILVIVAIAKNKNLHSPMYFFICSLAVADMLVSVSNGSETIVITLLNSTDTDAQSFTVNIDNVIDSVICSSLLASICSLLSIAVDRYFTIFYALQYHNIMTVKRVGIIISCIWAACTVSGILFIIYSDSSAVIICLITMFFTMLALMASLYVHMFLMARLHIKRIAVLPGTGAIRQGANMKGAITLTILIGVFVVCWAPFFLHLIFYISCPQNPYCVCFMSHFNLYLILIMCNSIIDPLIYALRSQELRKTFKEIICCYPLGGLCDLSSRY

Vero = test: cells; type: functional; details: Chlorocebus sabaeus
[13] = nonselective inhibitors of cellular cAMP signaling, dose response, counter-screen for MC4R biased antagonist project, cell-based, TR-FRET cAMP detection (AID 602305); type: functional;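 note: U2OS cells stimulated with forskolin near its EC80 as the cAMP inducer; potency is for inhibition of forskolin-stimulated cAMP signaling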
[14] = target: T6, Corticotropin-releasing factor receptor 2/Corticotropin-releasing factor-binding protein (Homo sapiens, UniProt P24387+Q13324); test: activators of CRF receptor 2 with binding protein – uHTS hits, confirmation (AID 602473); type: functional; details: read-out: EC50_Mean
T6 sequence (Q13324 whole entry): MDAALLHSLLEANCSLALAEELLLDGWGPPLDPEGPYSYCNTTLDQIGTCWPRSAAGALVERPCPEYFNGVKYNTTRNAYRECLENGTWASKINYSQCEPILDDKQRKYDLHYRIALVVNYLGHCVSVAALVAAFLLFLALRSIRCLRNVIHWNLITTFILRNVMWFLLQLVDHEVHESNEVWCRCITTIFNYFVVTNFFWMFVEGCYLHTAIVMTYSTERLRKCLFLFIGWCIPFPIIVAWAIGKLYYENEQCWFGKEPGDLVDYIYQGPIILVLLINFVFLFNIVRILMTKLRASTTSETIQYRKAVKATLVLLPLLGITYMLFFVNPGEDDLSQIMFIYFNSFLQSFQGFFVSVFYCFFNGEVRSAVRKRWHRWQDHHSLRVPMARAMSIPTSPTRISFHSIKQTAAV
T6 sequence (P24387 whole entry): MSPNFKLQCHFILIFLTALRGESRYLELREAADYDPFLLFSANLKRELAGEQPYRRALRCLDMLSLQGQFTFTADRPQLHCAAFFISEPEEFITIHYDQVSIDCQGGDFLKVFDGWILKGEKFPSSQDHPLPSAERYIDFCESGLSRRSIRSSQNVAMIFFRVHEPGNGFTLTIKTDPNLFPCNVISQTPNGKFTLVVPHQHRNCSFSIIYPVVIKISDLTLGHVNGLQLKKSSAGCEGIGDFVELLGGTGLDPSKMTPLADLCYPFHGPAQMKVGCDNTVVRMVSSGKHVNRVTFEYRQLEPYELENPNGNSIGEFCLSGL

[15] = CRF-BP/CRF-R2 complex antagonists, dose response, cell-based, uHTS hits, 384-well (AID 651639); type: functional, Homo sapiens; details: read-out: IC50_Mean
[16] = target: T6, Corticotropin-releasing factor receptor 2/Corticotropin-releasing factor-binding protein; test: Dose Response confirmation of uHTS hits for small molecule antagonists of the CRF-binding protein and CRF-R2 receptor complex.; type: functional; details: read-out: IC50_Mean
[17] = target: DNA dC->dU-editing enzyme APOBEC-3A (Homo sapiens, UniProt P31941); test: SAR analysis of small molecule inhibitors of APOBEC3A DNA Deaminase via a fluorescence-based single-stranded DNA deaminase assay.; type: functional; details: read-out: IC50_Mean
DNA dC->dU-editing enzyme APOBEC-3A, sequence (P31941 whole entry): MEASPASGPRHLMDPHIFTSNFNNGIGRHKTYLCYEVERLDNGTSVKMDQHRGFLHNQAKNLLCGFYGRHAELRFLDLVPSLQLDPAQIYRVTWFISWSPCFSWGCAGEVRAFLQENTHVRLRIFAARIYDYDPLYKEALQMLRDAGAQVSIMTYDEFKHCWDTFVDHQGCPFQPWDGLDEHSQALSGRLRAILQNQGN

[18] = target: DNA dC->dU-editing enzyme APOBEC-3G (Homo sapiens, UniProt Q9HC16); test: APOBEC3G deaminase inhibitors, SAR follow-up, biochemical, fluorescence, single-stranded DNA substrate (AID 602136); type: functional; details: read-out: IC50_Mean
DNA dC->dU-editing enzyme APOBEC-3G, sequence (Q9HC16 whole entry): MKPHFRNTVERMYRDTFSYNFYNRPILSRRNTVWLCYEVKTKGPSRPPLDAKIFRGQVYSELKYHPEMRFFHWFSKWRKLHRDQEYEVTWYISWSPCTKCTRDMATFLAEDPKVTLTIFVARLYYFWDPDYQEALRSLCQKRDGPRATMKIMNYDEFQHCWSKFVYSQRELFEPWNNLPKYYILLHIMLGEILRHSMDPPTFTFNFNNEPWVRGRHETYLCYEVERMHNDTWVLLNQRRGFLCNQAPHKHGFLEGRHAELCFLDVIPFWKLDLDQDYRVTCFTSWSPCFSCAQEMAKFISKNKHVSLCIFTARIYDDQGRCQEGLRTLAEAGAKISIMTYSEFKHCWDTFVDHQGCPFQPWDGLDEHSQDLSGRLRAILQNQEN

[19] = target: T7, Rac GTPase-activating protein 1 (Homo sapiens, UniProt Q9H0H5); test: MgcRacGAP GTPase-activating activity inhibitors, confirmation, biochemical, ADP Hunter fluorescence, primary and confirmatory (AID 624330); type: functional
T7 sequence (Q9H0H5 whole entry): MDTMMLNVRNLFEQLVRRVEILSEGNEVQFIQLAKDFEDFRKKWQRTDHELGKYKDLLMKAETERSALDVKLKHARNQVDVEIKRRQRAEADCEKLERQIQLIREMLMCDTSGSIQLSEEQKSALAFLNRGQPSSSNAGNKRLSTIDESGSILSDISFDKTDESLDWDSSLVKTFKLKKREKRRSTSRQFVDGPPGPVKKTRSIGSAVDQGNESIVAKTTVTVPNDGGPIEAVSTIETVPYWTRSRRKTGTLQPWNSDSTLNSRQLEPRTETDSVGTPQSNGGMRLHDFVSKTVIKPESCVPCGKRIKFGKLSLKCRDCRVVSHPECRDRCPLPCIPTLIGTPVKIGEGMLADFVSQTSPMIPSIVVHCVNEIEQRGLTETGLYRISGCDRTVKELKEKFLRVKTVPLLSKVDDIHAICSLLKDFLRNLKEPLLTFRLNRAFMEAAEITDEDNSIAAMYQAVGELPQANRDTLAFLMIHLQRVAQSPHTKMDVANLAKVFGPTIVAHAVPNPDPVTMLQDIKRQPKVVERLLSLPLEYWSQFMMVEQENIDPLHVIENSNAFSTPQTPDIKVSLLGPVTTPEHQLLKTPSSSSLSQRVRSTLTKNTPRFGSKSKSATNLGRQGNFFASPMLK

Coagulation factor XII = target: T8, Coagulation factor XII (Homo sapiens, UniProt P00748); type: functional;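 note: activated factor XIIa alpha cleaving a fluorogenic AMC peptide substrate; inhibitor potency from loss of enzyme activity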
T8 sequence (P00748 whole entry): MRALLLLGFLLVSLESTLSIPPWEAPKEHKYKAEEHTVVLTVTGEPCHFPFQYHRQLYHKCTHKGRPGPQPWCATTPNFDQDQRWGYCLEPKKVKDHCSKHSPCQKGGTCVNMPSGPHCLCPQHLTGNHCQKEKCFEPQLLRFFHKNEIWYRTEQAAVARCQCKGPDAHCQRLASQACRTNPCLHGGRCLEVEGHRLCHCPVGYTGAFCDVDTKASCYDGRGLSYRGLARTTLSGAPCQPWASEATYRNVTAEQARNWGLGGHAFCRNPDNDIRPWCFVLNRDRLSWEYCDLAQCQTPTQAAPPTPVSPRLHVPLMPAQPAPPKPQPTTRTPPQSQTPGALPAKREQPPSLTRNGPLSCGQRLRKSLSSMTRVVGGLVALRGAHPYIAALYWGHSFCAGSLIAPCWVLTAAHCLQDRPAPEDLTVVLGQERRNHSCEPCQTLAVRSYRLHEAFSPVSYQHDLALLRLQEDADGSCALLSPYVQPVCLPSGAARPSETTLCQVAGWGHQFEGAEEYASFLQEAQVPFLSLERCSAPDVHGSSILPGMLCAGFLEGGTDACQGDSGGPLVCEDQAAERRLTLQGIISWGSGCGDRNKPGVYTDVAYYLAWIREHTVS

Cc1cc(N2CCC(C)CC2)nc2cccc(O)c12
IC50 [1]: 80 µM (inactive) | IC50 [2]: 9.87 µM (active) | IC50 [3]: 13.2 µM (active) | AC50 [4]: 14.3 µM (active) | EC50 [5]: 0.335 µM (active)

COc1ccc2nc(N)sc2c1
AC50 [6]: 44.7 µM (inconclusive) | AC50 (Cytochrome P450 3A4): 31.6 µM (inconclusive)

Nc1[nH]c(C(=O)c2ccccc2)c(-c2ccccc2Br)c1C(=O)NCc1ccc(-c2ccccc2)cc1
IC50 [7]: 65.9 µM (active) | IC50 [8]: 26.5 µM (active)

COc1cccc(NC(=O)CSc2nc3c(c(=O)[nH]2)CCC3)c1
CC50 [9]: > 100 µM (active)

O=C1c2ccccc2C(=O)c2c(/C=C/N3CCCCC3)ccnc21
IC50 (Genome polyprotein): 61.6 µM (active) | EC50 [10]: > 104 µM (inactive) | IC50 [11]: 50.2 µM (inactive) | IC50 [12]: > 66 µM (inactive)

COC(=O)C=C1CCC2C3CCC4=CC(=O)C(Br)CC4(C)C3C(=O)CC12C (centres undefined)
IC50 (Melanocortin receptor 4): > 64.6 µM (inactive) | CC50 (Vero): > 25 µM (active) | IC50 [13]: > 64.6 µM (inactive)

CC(=O)NC(Cc1ccc(C)cc1)C(=O)NC1CCN(c2ncccc2[N+](=O)[O-])CC1 (centres undefined)
EC50 [14]: > 53 µM (inactive) | IC50 [15]: 5.07 µM (active) | IC50 [16]: 2.09 µM (active)

O=C(CNCc1ccccn1)Nc1cc(C(F)(F)F)ccc1N1CCOCC1
IC50 [17]: > 99 µM (inactive) | IC50 [18]: > 99 µM (inactive) | IC50 [19]: 138 µM (active) | IC50 (Coagulation factor XII): > 50 µM (inactive)
